Assay results taken from patent publication EP3305290B1, “[…] […] FOR USE IN THE TREATMENT OF VIRAL INFECTIONS” (priority 2016, dated 2018).
Entries after “also recorded” stand apart in the source; their conditions may differ. Read-outs that look alike come from different tables or passages of the source.

Legend:
rhinovirus A1 = test: organism not typed; assay type: cell-based, human Rhinovirus 1A (HRV1A); details: for EC50: MRC5, 24 h
5'-UTR from HCoV-229E = assay type: cell-based
poliovirus [1] = test: microbe, parasite or virus in culture; assay type: cell-based, Poliovirus Typ 1 (strain Mahoney; PV)
Huh-7 cells [2] = test: Cell morphology of Huh-7 cells by light microscopy; assay type: cell-based, human; details: 10 nM, three days
EBOV [3] = assay type: cell-based, Zaire Ebola virus (EBOV) strain Mayinga
HCoV-229E [4] = test: microbe, parasite or virus in culture; assay type: cell-based, Human Coronavirus 229E (HCoV-229E)
viral dsRNA and nsp8 = test: Immunofluorescence of replication/transcription complexes in HCoV-229E infected MRC-5 cells; assay type: cell-based; details: MOI 3, 12 h p.i.
MERS-CoV [5] = test: microbe, parasite or virus in culture; assay type: cell-based, MERS-CoV (EMC/2012)
primary macrophages = test: WST-1 viability assay of primary macrophages
EBOV NP protein = assay type: cell-based, Zaire Ebola virus (EBOV) strain Mayinga
Rhinovirus 1A = test: microbe, parasite or virus in culture; assay type: cell-based, human Rhinovirus 1A (HRV1A); details: for EC50: Enterovirus, HeLa
[6] = Cell toxicity (MTT) in hAEC; details: human
[7] = Cell toxicity (MTT) in PBMCs; details: human
[8] = test system: proto-oncogenic kinase PIM1; test: Westernblot of PIM1 in primary macrophages; assay type: cell-based, human
MERS-CoV [9] = test: microbe, parasite or virus in culture; assay type: cell-based, MERS-CoV (EMC/2012); remark: listed apart in the source
HCoV-229E [10] = test: microbe, parasite or virus in culture; assay type: cell-based, Human Coronavirus 229E (HCoV-229E); details: Human coronavirus 229E
[11] = test system: 5'-UTRs of all seven EBOV mRNAs; assay type: cell-based
in vitro = details: human
Coronaviruses = test: organism not typed; assay type: cell-based; details: MRC5, read-out: EC50-values
[12] = test system: HCoV-229E proteins N and nsp8; test: Westernblot analysis, Method 2, HCoV-229E proteins N and nsp8; assay type: cell-based
5'-UTR from MERS-CoV = assay type: cell-based
Huh-7 cells [13] = test: WST-1 proliferation assay of Huh-7 cells
EBOV [14] = assay type: cell-based, Zaire Ebola virus (EBOV) strain Mayinga; remark: listed apart in the source
5'-UTRs of Ebola mRNAs = test: cells; assay type: cell-based, EBOV; details: for inhibition at 0.01 µM: Zaire ebolavirus
poliovirus [15] = test: microbe, parasite or virus in culture; assay type: cell-based, Poliovirus Typ 1 (strain Mahoney; PV); details: Enterovirus C
[16] = test system: EBOV proteins VP40, NP and GP; assay type: cell-based, Zaire Ebola virus (EBOV) strain Mayinga

SMILES: COC(=O)[C@H]1[C@@H](O)[C@@]2(O)c3c(OC)cc(O[C@@H]4O[C@@H]([C@H](O)CO)CO[C@H]4OC)cc3O[C@@]2(c2ccc(OC)cc2)[C@@H]1c1ccccc1 [Silvestrol]
- fold less sensitive compared to the analyzed coronaviruses (rhinovirus A1): about 100 fold
- EC50 (rhinovirus A1): 0.1 µM
- EC50 (rhinovirus A1; Rhinovirus A): 0.1 µM
- decrease of luciferase activity (5'-UTR from HCoV-229E): ~40%
- fold less sensitive / less efficient compared to MERS-CoV and HCoV-229E (poliovirus [1]): about 10 fold
- EC50 (poliovirus [1]; Enterovirus C, MRC5, 24 h): 0.02 µM
- cell morphology (Huh-7 cells [2]): without changing cell morphology
- antiviral effect (EBOV titer) (EBOV [3]): comparable antiviral effect
- inhibition of EBOV infection (viral titers) (EBOV [3]): substantially inhibits EBOV infection; also recorded: inhibits viral propagation efficiently; also recorded: strongly inhibits EBOV replication
- EC50 fold lower in MRC-5 cells compared to infected Huh-7 cells (HCoV-229E [4]): about 10 fold
- selectivity index (CC50/EC50) (HCoV-229E [4]): 566
- EC50 (HCoV-229E [4]; Human coronavirus 229E, MRC5, 24 h): 0.003 µM
- levels of double-stranded viral RNA and nsp8 (RTC markers) (viral dsRNA and nsp8; 10 nM): drop down
- levels of double-stranded viral RNA and nsp8 (RTC markers) (viral dsRNA and nsp8; 100 nM): nearly no viral dsRNA or nsp8 can be detected
- selectivity index (MERS-CoV [5]): 166
- EC50 (MERS-CoV [5]; Middle East respiratory syndrome-related coronavirus, Epithelial cell, 48 h): 0.003 µM
- IC50 (primary macrophages; Homo sapiens, Primary macrophage, 72 h, read-out: IC50 (WST-1 viability assay), primary macrophages, 0.1 nM - 10 µM, 72 h): ~0.096 µM
- concentration with essentially no sign of toxicity (primary macrophages; primary macrophages, WST-1): at least 50 nM
- expression level of the EBOV NP protein (EBOV NP protein): potent downregulation; also recorded: strongly decreased levels
- EC50 fold higher compared to HCoV-229E in Huh-7 (Rhinovirus 1A): about 10 fold
- EC50 (Rhinovirus 1A): 0.4 µM
- EC50 (Rhinovirus 1A; 24 h, read-out: effective dose (EC50)): 0.4 µM
- CC50 at 48 h [6]: 0.5 µM
- CC50 [7]: 0.4 µM
- PIM1 levels ([8]; primary macrophages, 10 nM): strongly decreased levels
- duration of inhibitory effect on PIM1 levels ([8]; single dose 10 nM, macrophages): at least 5 days
- cellular β-Actin levels ([8]; single dose 10 nM, macrophages, up to 5 days): without affecting cellular β-Actin levels
- selectivity index (CC50/EC50) (MERS-CoV [9]): 1538
- EC50 (MERS-CoV [9]; Middle East respiratory syndrome-related coronavirus, MRC5, 24 h): 0.0013 µM
- EC50 (HCoV-229E [10]; Huh-7): 0.04 µM
- EC50 (HCoV-229E [10]; Huh-7, 24 h, read-out: effective dose (EC50)): 0.04 µM
- inhibition of firefly luciferase activity [11]: 23-33%
- reduction of firefly luciferase activity [11]: no significant reduction
- CC50 (in vitro; CC50): 1.7 µM
- CC50 (in vitro; CC50 / cell toxicity): > 1 µM
- EC50 (Coronaviruses): 0.001 to 0.003 µM
- level of N-protein ([12]; HCoV-229E infected primary MRC-5 cells, 10 nM, 12 h and 48 h p.i.): disappears
- HCoV-229E proteins N and nsp8 ([12]; Huh-7 infected cells, 10 nM): detectable
- N-protein ([12]; Huh-7 infected cells, 100 nM): only very low amounts
- nsp8 ([12]; Huh-7 infected cells, 100 nM): completely absent
- decrease of luciferase activity (5'-UTR from MERS-CoV): ~40%
- effect on proliferation of Huh-7 cells (Huh-7 cells [13]; higher concentrations up to 100 nM, compared to DMSO control): weakly affected; also recorded: weak effects on proliferation
- effect on proliferation of Huh-7 cells (Huh-7 cells [13]; up to 10 nM Silvestrol, WST-1, 48 h): no obvious effects on proliferation; also recorded: No effect of Silvestrol on proliferation
- reduction of viral titers (EBOV [14]): up to two orders of magnitude
- effect on IRES-driven renilla luciferase activity (5'-UTRs of Ebola mRNAs): no obvious effect
- inhibition at 0.01 µM (5'-UTRs of Ebola mRNAs; HepG2, read-out: inhibitory effect on firefly luciferase activity): 80%
- inhibition at 0.01 µM (5'-UTRs of Ebola mRNAs; HepG2, read-out: inhibitory effect on luciferase levels): 30%
- EC50 (poliovirus [15]; Vero C1008): ~0.1 µM
- EC50 (poliovirus [15]; Vero C1008, 24 h, read-out: effective dose (EC50)): 0.1 µM
- EBOV protein VP40 levels [16]: strong reduction of VP40 levels; also recorded: inhibits the expression
- EBOV proteins NP and GP levels [16]: Downregulation
- cellular protein tubulin level [16]: not affected
